Test results from patent publication US20110275583A1, “Synergistic active compound combinations” (priority 2010, published 2011).
Read-outs that look alike come from different tables or passages of the source.

Key:
Format in all cases: in vivo
[1] = system: armyworm (Spodoptera frugiperda); test: Spodoptera frugiperda larvae test (sprayed cabbage leaves); conditions: single active compound
Text: (§1) The expected action for a given combination of two active compounds can be calculated as follows, using the formula of S. R. Colby, Weeds 15 (1967), 20-22: • If • X is the kill rate, expressed as % of the untreated control, when employing active compound A at an application rate of m g/ha or in a concentration of in ppm, • Y is the kill rate, expressed as % of the untreated control, when employing active compound B at an application rate of n g/ha or in a concentration of n ppm and • E is the kill rate, expressed as % of the untreated control, when employing active compounds A and B at application rates of m and n g/ha or in a concentration of m and n ppm, • then
(§2) If the actual kill rate exceeds the calculated value, the action of the combination is superadditive, i.e. a synergistic effect is present. In this case, the actually observed kill rate must exceed the value calculated using the above formula for the expected kill rate (E).
(§3) Solvent: 78 parts by weight of acetone • • 1.5 parts by weight of dimethylformamide
(§4) Emulsifier: 0.5 part by weight of alkylaryl polyglycol ether
(§5) To produce a suitable preparation of active compound, 1 part by weight of active compound is mixed with the stated amounts of solvent and emulsifier, and the concentrate is diluted with emulsifier-containing water to the desired concentration.
Cabbage leaves (Brassica oleracea) are treated by being sprayed with the preparation of active compound of the desired concentration and are populated with the armyworm (Spodoptera frugiperda) while the leaves are still moist.
After the desired period of time, the kill in % is determined. 100% means that all caterpillars have been killed; 0% means that none of the caterpillars have been killed. The kill rates determined are entered, into Colby's formula.

[2] = system: green peach aphid (Myzus persicae); test: Myzus persicae test (spray treatment of infested cabbage leaves)
Text: as §1, §2, §3, §4, §5
Cabbage leaves (Brassica oleracea) which are heavily infested by the green peach aphid (Myzus persicae) are treated by spraying with the active compound preparation of the desired concentration.
After the desired period of time, the kill in % is determined. 100% means that all of the aphids have been killed; 0% means that none of the aphids have been killed. The kill rates determined are entered into Colby's formula.

[3] = system: larvae of the mustard beetle (Phaedon cochleariae); test: Phaedon cochleariae larvae test (sprayed cabbage leaves); conditions: single active compound
Text: as §1, §2, §3, §4, §5
Cabbage leaves (Brassica oleracea) are treated by spraying with the active compound preparation of the desired concentration and populated with larvae of the mustard beetle (Phaedon cochleariae) while the leaves are still moist.
After the desired period of time, the kill in % is determined. 100% means that all beetle larvae have been killed; 0% means that none of the beetle larvae have been killed. The kill rates determined are entered into Colby's formula.

[4] = system: greenhouse red spider mite (Tetranychus urticae); test: Tetranychus test, OP-resistant/spray treatment (bean leaf discs); conditions: single active compound
Text: as §1, §2, §3, §4, §5
Discs of bean leaves (Phaseolus vulgaris) which are infested by all stages of the greenhouse red spider mite (Tetranychus urticae) are sprayed with an active compound preparation of the desired concentration.
After the desired period of time, the effect in % is determined. 100% means that all of the spider mites have been killed; 0% means that none of the spider mites have been killed.

[5] = Spodoptera frugiperda, 144 h, 6 d, read-out: Kill in % after 6 d
[6] = Myzus persicae, 24 h, 0.8 g/ha, after 1 d, read-out: Kill in % after 1d
[7] = Phaedon cochleariae, 48 h, 0.8 g/ha, 2 d, read-out: Kill in % after 2 d
[8] = Tetranychus urticae, foliar, 48 h, 2 d, read-out: Kill in % after 2 d
[9] = Spodoptera frugiperda, 144 h, 0.16 g/ha, 6 d, read-out: Kill in % after 6 d
[10] = Myzus persicae, 24 h, after 1 d, read-out: Kill in % after 1d
[11] = Phaedon cochleariae, 144 h, 0.8 g/ha, 6 d, read-out: Kill in % after 6 d
[12] = Tetranychus urticae, foliar, 144 h, 6 d, read-out: Kill in % after 6 d
[13] = Tetranychus urticae, foliar, 48 h, 100 g/ha, 2 d, read-out: Kill in % after 2 d
[14] = Phaedon cochleariae, 144 h, 6 d, read-out: Kill in % after 6 d
[15] = Spodoptera frugiperda, 48 h, 2 d, read-out: Kill in % after 2 d
[16] = Phaedon cochleariae, 48 h, 2 d, read-out: Kill in % after 2 d
[17] = Myzus persicae, 144 h, single active compound, 6 d, read-out: Kill in % after 6 d
[18] = Tetranychus urticae, foliar, 144 h, 100 g/ha, 6 d, read-out: Kill in % after 6 d
[19] = Spodoptera frugiperda, 144 h, 4 g/ha, 6 d, read-out: Kill in % after 6 d

CNC(=O)c1cc(C#N)cc(C)c1NC(=O)c1cc(Br)nn1-c1ncccc1Cl [Cyazypyr, cyantraniliprole]
pest or weed control at 0.8 g/ha [1, 5]: 50%
pest or weed control at 0.8 g/ha [2, 6]: 0%
pest or weed control at 0.8 g/ha [3, 7]: 50%
pest or weed control at 0.16 g/ha ([3]; Phaedon cochleariae, 144 h, 0.16 g/ha, 6 d, read-out: Kill in % after 6 d): 33%
pest or weed control at 20 g/ha [4, 8]: 0%

CC1(C)C(/C=C(\Cl)C(F)(F)F)C1C(=O)OC(C#N)c1cccc(Oc2ccccc2)c1 [L-cyhalothrin, lambda-cyhalothrin]
pest or weed control at 0.16 g/ha [1, 9]: 0%
pest or weed control at 0.8 g/ha [1, 5]: 50%
pest or weed control at 0.032 g/ha [2, 10]: 0%
pest or weed control at 0.8 g/ha [3, 11]: 33%
pest or weed control at 0.8 g/ha ([4]; Tetranychus urticae, foliar, 144 h, 0.8 g/ha, 6 d, read-out: Kill in % after 6 d): 0%
pest or weed control at 4 g/ha [4, 12]: 80%

CNC(=O)O/N=C/C(C)(C)SC [aldicarb]
pest or weed control at 100 g/ha [1, 5]: 0%
pest or weed control at 100 g/ha [4, 13]: 0%

CC1(C)C(C=C(Cl)Cl)C1C(=O)OC(C#N)c1cccc(Oc2ccccc2)c1 (stereo not drawn) [alpha-cypermethrin]
pest or weed control at 0.8 g/ha [1, 5]: 33%
pest or weed control at 0.16 g/ha ([2]; Myzus persicae, 24 h, 0.16 g/ha, after 1 d, read-out: Kill in % after 1d): 0%
pest or weed control at 4 g/ha [3, 14]: 67%

CNC(=O)c1cc(Cl)cc(C)c1NC(=O)c1cc(Br)nn1-c1ncccc1Cl [chloranthraniliprole, chlorantraniliprole]
pest or weed control at 4 g/ha ([1]; Spodoptera frugiperda, 48 h, 4 g/ha, 2 d, read-out: Kill in % after 2 d): 67%
pest or weed control at 0.8 g/ha [2, 6]: 0%
pest or weed control at 0.8 g/ha [3, 7]: 67%

CCOP(=S)(OCC)Oc1nc(Cl)c(Cl)cc1Cl [chlorpyrifos]
Kill in % after 6 d ([1]; 4 g/ha, 6 d): 0%
Kill in % after 6 d ([4]; 100 g/ha, 6 d): 0%

c1cnc(-c2cccc(-c3cnc(-c4cccnc4)s3)n2)nc1 [compound of the formula (I-2)]
pest or weed control at 20 g/ha [1, 15]: 0%
pest or weed control at 100 g/ha [1, 15]: 0%
pest or weed control at 500 g/ha [1, 15]: 0%
pest or weed control at 20 g/ha [1, 5]: 0%
pest or weed control at 100 g/ha [1, 5]: 0%
pest or weed control at 500 g/ha [1, 5]: 0%
pest or weed control at 4 g/ha [2, 10]: 0%
pest or weed control at 20 g/ha [2, 10]: 0%
pest or weed control at 100 g/ha [2, 10]: 0%
pest or weed control at 500 g/ha [2, 10]: 0%
pest or weed control at 4 g/ha [3, 16]: 0%
pest or weed control at 20 g/ha [3, 16]: 0%
pest or weed control at 100 g/ha [3, 16]: 0%
pest or weed control at 500 g/ha [3, 16]: 0%
pest or weed control at 4 g/ha [3, 14]: 0%
pest or weed control at 20 g/ha [3, 14]: 0%
pest or weed control at 100 g/ha [3, 14]: 0%
pest or weed control at 500 g/ha [3, 14]: 0%
pest or weed control at 4 g/ha [4, 8]: 0%
pest or weed control at 20 g/ha [4, 8]: 0%
pest or weed control at 100 g/ha [4, 13]: 0%
pest or weed control at 500 g/ha [4, 8]: 0%
pest or weed control at 4 g/ha [4, 12]: 0%
pest or weed control at 500 g/ha [4, 12]: 0%

Fc1cncc(-c2ncc(-c3cccc(-c4ncccn4)n3)s2)c1 [compound of the formula (I-3)]
pest or weed control at 500 g/ha [1, 15]: 0%
pest or weed control at 20 g/ha [1, 5]: 0%
pest or weed control at 100 g/ha [1, 5]: 0%
pest or weed control at 500 g/ha [1, 5]: 0%
pest or weed control at 4 g/ha [2, 10]: 0%
pest or weed control at 20 g/ha [2, 10]: 0%
pest or weed control at 100 g/ha [2, 10]: 0%
pest or weed control at 500 g/ha [2, 10]: 0%
pest or weed control at 4 g/ha [2, 17]: 70%
pest or weed control at 20 g/ha [2, 17]: 70%
pest or weed control at 4 g/ha [3, 16]: 0%
pest or weed control at 20 g/ha [3, 16]: 0%
pest or weed control at 100 g/ha [3, 16]: 0%
pest or weed control at 500 g/ha [3, 16]: 0%
pest or weed control at 4 g/ha [3, 14]: 0%
pest or weed control at 100 g/ha [3, 14]: 0%
pest or weed control at 500 g/ha [3, 14]: 0%
pest or weed control at 4 g/ha [4, 8]: 0%
pest or weed control at 20 g/ha [4, 8]: 0%
pest or weed control at 500 g/ha [4, 8]: 0%
pest or weed control at 4 g/ha [4, 12]: 0%
pest or weed control at 20 g/ha [4, 12]: 0%
pest or weed control at 100 g/ha [4, 18]: 0%
pest or weed control at 500 g/ha [4, 12]: 0%

CC1(C)[C@H](C(=O)O[C@H](C#N)c2cccc(Oc3ccccc3)c2)[C@@H]1C=C(Br)Br [deltamethrin]
pest or weed control at 0.032 g/ha ([1]; Spodoptera frugiperda, 144 h, 0.032 g/ha, 6 d, read-out: Kill in % after 6 d): 33%
pest or weed control at 0.032 g/ha [2, 10]: 70%
pest or weed control at 0.8 g/ha [3, 7]: 67%

N#Cc1nn(-c2c(Cl)cc(C(F)(F)F)cc2Cl)c(N)c1[S+]([O-])C(F)(F)F (centres unmarked) [fipronil]
pest or weed control at 4 g/ha [1, 19]: 0%
pest or weed control at 0.8 g/ha [3, 7]: 50%
pest or weed control at 100 g/ha [4, 18]: 0%

CNC(=O)Oc1cc(C)c(SC)c(C)c1 [methiocarb]
pest or weed control at 100 g/ha [1, 15]: 0%
pest or weed control at 100 g/ha [3, 16]: 50%

FC(F)(F)c1ccc(OCCCOc2c(Cl)cc(OCC=C(Cl)Cl)cc2Cl)nc1 [pyridalyl]
pest or weed control at 4 g/ha [1, 19]: 17%
pest or weed control at 0.8 g/ha ([2]; Myzus persicae, 144 h, 0.8 g/ha, single active compound, 6 d, read-out: Kill in % after 6 d): 0%
pest or weed control at 20 g/ha [4, 12]: 10%

CC1(C)C(C=C(Cl)Cl)C1C(=O)OC(C#N)c1ccc(F)c(Oc2ccccc2)c1 (stereo not drawn) [β-cyfluthrin, beta-cyfluthrin]
pest or weed control at 0.16 g/ha [1, 9]: 0%
pest or weed control at 0.032 g/ha [2, 10]: 0%
pest or weed control at 0.8 g/ha [3, 11]: 33%
pest or weed control at 4 g/ha [4, 12]: 0%

emamectin benzoate
Kill in % after 2 d ([1]; 0.16 g/ha, 2 d): 0%
Kill in % after 6 d ([2]; 0.16 g/ha, single active compound, 6 d): 0%
Kill in % after 1d ([2]; 0.8 g/ha, after 1 d): 0%
Kill in % after 2 d ([3]; 0.8 g/ha, 2 d): 50%
Kill in % after 2 d ([4]; 0.032 g/ha, 2 d): 0%
